Data as given in PMC12198282, “Application of a high-density microelectrode array assay using a 3D human iPSC-derived brain microphysiological system model for in vitro neurotoxicity screening of environmental compounds” (Archives of Toxicology, 2025).
Where two headings read alike, the source gives them in different places.

What was measured:
[1] = test system: human iPSC-derived 3D BrainSpheres; test: BrainSphere MEA assay (HD-MEA, 13-day exposure, concentration-response); assay type: cell-based; settings: for EC (benchmark response 1.349 SD): 312 h; for AC50: concentration at 50% maximal activity, Supplement 3 prints it also for curves with hit call 0; as to hitc Mean.Spheroid.Burst.ISI: key: 1 (active); 0 (inactive); as to hitc Mean.Spheroid.Burst.Peak.Firing.Rate: key: 1 (active); 0 (inactive); as to hitc Mean.Spheroid.Firing.Rate: key: 1 (active); 0 (inactive); as to hitc Mean.Spheroid.IBI: key: 1 (active); 0 (inactive); as to hitc Mean.Spheroid.Nonburst.ISI: key: 1 (active); 0 (inactive); as to hitc Mean.Spheroid.Spikes.per.Burst.per.Electrode: key: 1 (active); 0 (inactive); as to hitc Mean.Spheroid.Spikes.per.Burst: key: 1 (active); 0 (inactive); as to hitc Spheroid.Burst.Frequency: key: 1 (active); 0 (inactive); as to hitc Spheroid.Spike.Amplitude.90th.Percentile: key: 1 (active); 0 (inactive)
Method: A volume of 1 ml of Tergazyme (1% solution in deionized water) was added to each well of the MaxTwo 6-Well Plate (MaxWell Biosystems) and incubated overnight under constant gyratory shaking (88 RPM) at 37 °C and 5% CO2. The next day, Tergazyme solution was removed, and plates were washed with distilled water and ethanol. After remaining ethanol was evaporated, wells were washed with PBS. Then, 200 µl of Poly-D-Lysine (Gibco, A38904 - 01) was added on top of the electrodes and incubated at 37 °C and 5% CO2 for 3 h (humidified). Poly-D-Lysine was then removed, and wells were coated with 100 µl of 0.1 mg/ml laminin coating solution (Sigma-Aldrich, L2020 - 1 mg) and incubated for 2 h at 37 ℃ and 5% CO2 (humidified). The laminin was removed after incubation. Using a 1 ml micropipette, 1 ml of medium containing BrainSpheres (7 weeks differentiated), approximately 25 BrainSpheres per ml, was plated on top of the HD-MEA chip (Fig. 1A). Afterwards, the plate was placed in an incubator at 37 °C and 5% CO2 and moved in circles to accumulate the BrainSpheres on top of the electrode area (Fig. 1A). The plate was kept in an incubator (humidified) for 2 days to allow attachment of the BrainSpheres with no gyratory shaking of the plates.
The MaxTwo high-density microelectrode array system (MaxWell Biosystems AG, Zurich, Switzerland) was used to measure neural activity with MaxTwo 6-well plates, where every well includes an integrated chip with 26,400 platinum electrodes arranged in an area of 3.85 × 2.10 mm^2 ([…]) (Muller et al. [2015]). The data were recorded and analyzed with the MaxLab Live Software (version 22.2.22). First, the MaxLab live ActivityScan Assay was used to identify the activity and positioning of the BrainSpheres on the array by scanning all the 26,400 electrodes in 29 configurations in a well (Assay Parameters: Configuration = Full; Recording time per configuration = 60 s (s)). The settings gain = 512, high-pass-filter (HPF): ~ 1 Hz and spike threshold = 5 X root-mean square (RMS) noise were used for all HD-MEA recordings. Circular regions of interest (ROI) were manually selected in the Activity Map where neuronal activity was apparent by an increased activity (Fig. 2). Over the course of the 13-day experiment, the same selected regions and electrodes were measured using the MaxLab Live Network Assay (600 s recording time).
A custom analysis framework was used to extract the MaxLab Live neuronal metrics for the individual BrainSpheres. For this, electrodes comprising a single ROI (i.e., individual BrainSphere; Fig. 2D) were grouped using distance-based clustering (fcluster method of Scipy library, Python 3.7) and neural metrics were calculated for the clustered electrodes for every ROI separately. Figure 2E presents a raster plot illustrating the activity associated with individual Regions of Interest (ROIs). […] Ten MaxLab Live neural metrics (endpoints) were evaluated from the MaxLab live ActivityScan and Network Assay in this study. See Table 3 for the endpoint definitions, tuned parameters, and activity type (general versus network connectivity).
The BrainSphere MEA assay measured changes in neural activity during a 13-day chemical exposure. The first recording day of the concentration–response screening protocol (day of exposure (DOE) 0) occurred after 7 weeks of BrainSphere differentiation, 48 h after plating on HD-MEA plates (Fig. 1B). The study included at least three biological replicates (one well per plate) from separate experiments (e.g., three different plates on three different days) and each well included multiple BrainSpheres which were considered technical replicates.

2D rat cortical cultures [2] = settings: cited from earlier work
2D rat cortical cultures [3] = settings: cited from earlier work; remark: listed apart in the source
[4] = AUC over 13-day exposure, tcplfit2
[5] = tcplfit2 BMD at benchmark response (1.349*SD of baseline controls)
[6] = tcplfit2 output ACC, activity cutoff in Supplemental Table 1

## ClC1=C(Cl)[C@]2(Cl)[C@@H]3[C@@H]4C[C@@H]([C@H]5O[C@@H]45)[C@@H]3[C@@]1(Cl)C2(Cl)Cl [Dieldrin]
[1]; 5th percentile of AC50 values by chemical, above 0.5 = more potent in the rNFA
  Difference of minimum potency between BrainSphere MEA assay and rNFA: more than 0.5 log10 µM
[1]; [4]
  hitc Mean.Spheroid.Burst.ISI: 1
  hitc Mean.Spheroid.Burst.Peak.Firing.Rate: 1
  hitc Mean.Spheroid.Firing.Rate: 1
  hitc Mean.Spheroid.IBI: 1
  hitc Mean.Spheroid.Nonburst.ISI: 0
  hitc Mean.Spheroid.Spikes.per.Burst: 1
  hitc Mean.Spheroid.Spikes.per.Burst.per.Electrode: 1
  hitc Spheroid.Burst.Frequency: 1
  hitc Spheroid.Spike.Amplitude.90th.Percentile: 1
[1]; Homo sapiens, 5th percentile across active AC50 values per chemical, read-out: Minimum potency
  EC50: 9.51 µM
[1]; Homo sapiens, tcplfit2 BMD at benchmark response (1.349*SD of baseline controls), read-out: BMD Mean.Spheroid.Burst.ISI
  EC (benchmark response 1.349 SD): 9.9 µM
[1]; Homo sapiens, tcplfit2 BMD at benchmark response (1.349*SD of baseline controls), read-out: BMD Mean.Spheroid.Nonburst.ISI
  EC (benchmark response 1.349 SD): 45 µM
[1]; Homo sapiens, read-out: ac50 Mean.Spheroid.Burst.Duration
  AC50: 13 µM
[1]; Homo sapiens, read-out: ac50 Mean.Spheroid.Burst.ISI
  AC50: 12 µM
[1]; Homo sapiens, read-out: ac50 Mean.Spheroid.Burst.Peak.Firing.Rate
  AC50: 11.7 µM
[1]; Homo sapiens, read-out: ac50 Mean.Spheroid.Firing.Rate
  AC50: 9.5 µM
[1]; Homo sapiens, read-out: ac50 Mean.Spheroid.IBI
  AC50: 28 µM
[1]; Homo sapiens, read-out: ac50 Mean.Spheroid.Nonburst.ISI
  AC50: 45 µM
[1]; Homo sapiens, read-out: ac50 Mean.Spheroid.Spikes.per.Burst
  AC50: 12.3 µM
[1]; Homo sapiens, read-out: ac50 Mean.Spheroid.Spikes.per.Burst.per.Electrode
  AC50: 11 µM
[1]; Homo sapiens, read-out: ac50 Spheroid.Burst.Frequency
  AC50: 9.6 µM
[1]; Homo sapiens, read-out: ac50 Spheroid.Spike.Amplitude.90th.Percentile
  AC50: 21 µM
[1]; Homo sapiens, mean across active AC50 values per chemical, read-out: Mean potency
  EC50: 14.3 µM
[1]; read-out: ac50 Mean.Spheroid.Burst.Duration
  AC50: 12.9 µM
[1]; read-out: ac50 Mean.Spheroid.Burst.ISI
  AC50: 12.2 µM
[1]; read-out: ac50 Mean.Spheroid.Firing.Rate
  AC50: 9.45 µM
[1]; read-out: ac50 Mean.Spheroid.IBI
  AC50: 28.2 µM
[1]; read-out: ac50 Mean.Spheroid.Spikes.per.Burst.per.Electrode
  AC50: 11.2 µM
[1]; read-out: ac50 Spheroid.Burst.Frequency
  AC50: 9.6 µM
[1]; read-out: ac50 Spheroid.Spike.Amplitude.90th.Percentile
  AC50: 20.8 µM
[1]; metrics active out of the total number of metrics screened
  Percent active: 90%
[1]; [5]
  BMD Mean.Spheroid.Burst.Peak.Firing.Rate: 9.9 µM
  BMD Mean.Spheroid.Firing.Rate: 9.3 µM
  BMD Mean.Spheroid.IBI: 27 µM
  BMD Mean.Spheroid.Spikes.per.Burst: 11 µM
  BMD Mean.Spheroid.Spikes.per.Burst.per.Electrode: 9.9 µM
  BMD Spheroid.Burst.Frequency: 9.8 µM
  BMD Spheroid.Spike.Amplitude.90th.Percentile: 17 µM
[1]; [6]
  ACC Mean.Spheroid.Burst.ISI: 8.4 µM
  ACC Mean.Spheroid.Burst.Peak.Firing.Rate: 9.6 µM
  ACC Mean.Spheroid.Firing.Rate: 11 µM
  ACC Mean.Spheroid.IBI: 28 µM
  ACC Mean.Spheroid.Nonburst.ISI: 52 µM
  ACC Mean.Spheroid.Spikes.per.Burst: 13 µM
  ACC Mean.Spheroid.Spikes.per.Burst.per.Electrode: 10 µM
  ACC Spheroid.Burst.Frequency: 9.2 µM
  ACC Spheroid.Spike.Amplitude.90th.Percentile: 20 µM
[1]; total number of active endpoints out of 10 MEA activity metrics, 13-day exposure
  Hits: 9
2D rat cortical cultures [2]
  hitc CCTE_Shafer_MEA_dev_AB: 1
2D rat cortical cultures [2]; read-out: ac50 CCTE_Shafer_MEA_dev_AB, rNFA mc5, cytotoxicity AlamarBlue
  AC50: 22.4 µM
2D rat cortical cultures [2]; ref Brown et al. [2016], Carstens et al. [2022], Frank et al. [2017b], Shafer et al. [2019], ToxCast invitrodb (v4.2)
  Cytotoxicity in the resazurin assay of the rNFA (in words): demonstrating cytotoxicity in the rNFA
2D rat cortical cultures [3]
  hitc CCTE_Shafer_MEA_dev_LDH: 1
2D rat cortical cultures [3]; read-out: ac50 CCTE_Shafer_MEA_dev_LDH, rNFA mc5, cytotoxicity LDH
  AC50: 11.3 µM
